IC50 data for 30 compounds are collected here from patent US20090298878A1, “OXIME COMPOUNDS AND THE USE THEREOF” (priority 2006, published 2009).

This assay addresses T1, N-type calcium channel (NTCC) (Homo sapiens, UniProt Q00975).
T1 construct: host or cells: IMR32 cells differentiated with dibutyryl cAMP and bromodeoxyuridine
Nature of the assay: FLIPR calcium mobilization assay for N-type calcium channel (differentiated IMR32 cells). It is filed as cell-based. The procedure:
Cell maintenance and differentiation. Unless noted otherwise, cell culture reagents were purchased from Mediatech of Hemdon, Md. IMR32 cells (American Type Culture Collection, ATCC, Manassas, Va.) were routinely cultured in growth medium consisting of minimum essential medium containing 10% fetal bovine serum (FBS, Hyclone, Logan, Utah), 100 U/mL penicillin, 100 μg/mL streptomycin, 2 mM L-glutamine, 1 mM sodium pyruvate, and 1× MEM non-essential amino acids. 80-90% confluent flasks of cells were differentiated using the following differentiation medium: Growth medium plus 1 mM dibutyryl cyclic AMP (Sigma, St. Louis, Mo.), and 2.5 μM bromodeoxyuridine (Sigma). Cells were differentiated for 8 days by replacing differentiation medium every 2-3 days.
FLIPR Calcium Mobilization Assay for N-type Calcium Channel. One day prior to performing this assay, differentiated IMR32 cells were treated with 1× CellStripper, and seeded on poly-D-lysine-coated 96-well clear-bottom black plates (Becton Dickinson, Franklin Lakes, N.J.) at 200,000 cells/well. On the day of the assay, the cell plates were washed with IMR32 buffer (127 mM NaCl, 1 mM KCl, 2 mM MgCl2, 700 μM NaH2PO4, 5 mM CaCl2, 5 mM NaHCO3, 8 mM HEPES, 10 mM glucose, pH 7.4), then pre-stimulated with KCl and loaded as follows: 0.05 mL of IMR32 buffer, 0.05 mL of each compound tested diluted in IMR32 buffer containing 20 μM nitrendipine (Sigma), and 0.1 mL KCl dissolved in IMR32 buffer, plus Fluo-4 were added (3 μM final concentration, Molecular Probes, Eugene, Oreg.). Final test compound concentrations ranged from about 846 pM to about 17 μM, final nitrendipine concentration was 5 μM, and final KCl concentration was 90 mM. After 1 hour, the cells were washed twice with 0.05 mL of each compound tested in nitrendipine-containing IMR32 buffer (no KCl or Fluo-4), and then replaced with 0.1 mL of each compound tested in nitrendipine-containing IMR32 buffer. Plates were then transferred to a Fluorimetric imaging Plate Reader (FLIPR^96, Molecular Devices, Inc., Sunnyvale, Calif.) for assay. The FLIPR measured basal Fluo-4 fluorescence for 315 seconds (i.e., 5 minutes and 15 seconds), then added 0.1 mL KCl agonist dissolved in IMR32 buffer and measured fluorescence for another 45 seconds. Final test compound concentrations on the cells after FLIPR read ranged from about 846 pM to about 17 μM, final nitrendipine concentration was 5 μM, and final KCl concentration was 90 mM. Data were collected over the entire time course and analyzed using Excel, Graph Pad Prism (version 3.02, Graph Pad, San Diego, Calif.), or an in-house non-linear regression analysis software.
(Calcium assays in cells follow changes in intracellular calcium, usually with a dye or a luminescent sensor.)

The mark [1] stands for this setting: about 1.0 μM or less, calcium mobilization and/or electrophysiological assay.

T1 sequence (Q00975 whole entry): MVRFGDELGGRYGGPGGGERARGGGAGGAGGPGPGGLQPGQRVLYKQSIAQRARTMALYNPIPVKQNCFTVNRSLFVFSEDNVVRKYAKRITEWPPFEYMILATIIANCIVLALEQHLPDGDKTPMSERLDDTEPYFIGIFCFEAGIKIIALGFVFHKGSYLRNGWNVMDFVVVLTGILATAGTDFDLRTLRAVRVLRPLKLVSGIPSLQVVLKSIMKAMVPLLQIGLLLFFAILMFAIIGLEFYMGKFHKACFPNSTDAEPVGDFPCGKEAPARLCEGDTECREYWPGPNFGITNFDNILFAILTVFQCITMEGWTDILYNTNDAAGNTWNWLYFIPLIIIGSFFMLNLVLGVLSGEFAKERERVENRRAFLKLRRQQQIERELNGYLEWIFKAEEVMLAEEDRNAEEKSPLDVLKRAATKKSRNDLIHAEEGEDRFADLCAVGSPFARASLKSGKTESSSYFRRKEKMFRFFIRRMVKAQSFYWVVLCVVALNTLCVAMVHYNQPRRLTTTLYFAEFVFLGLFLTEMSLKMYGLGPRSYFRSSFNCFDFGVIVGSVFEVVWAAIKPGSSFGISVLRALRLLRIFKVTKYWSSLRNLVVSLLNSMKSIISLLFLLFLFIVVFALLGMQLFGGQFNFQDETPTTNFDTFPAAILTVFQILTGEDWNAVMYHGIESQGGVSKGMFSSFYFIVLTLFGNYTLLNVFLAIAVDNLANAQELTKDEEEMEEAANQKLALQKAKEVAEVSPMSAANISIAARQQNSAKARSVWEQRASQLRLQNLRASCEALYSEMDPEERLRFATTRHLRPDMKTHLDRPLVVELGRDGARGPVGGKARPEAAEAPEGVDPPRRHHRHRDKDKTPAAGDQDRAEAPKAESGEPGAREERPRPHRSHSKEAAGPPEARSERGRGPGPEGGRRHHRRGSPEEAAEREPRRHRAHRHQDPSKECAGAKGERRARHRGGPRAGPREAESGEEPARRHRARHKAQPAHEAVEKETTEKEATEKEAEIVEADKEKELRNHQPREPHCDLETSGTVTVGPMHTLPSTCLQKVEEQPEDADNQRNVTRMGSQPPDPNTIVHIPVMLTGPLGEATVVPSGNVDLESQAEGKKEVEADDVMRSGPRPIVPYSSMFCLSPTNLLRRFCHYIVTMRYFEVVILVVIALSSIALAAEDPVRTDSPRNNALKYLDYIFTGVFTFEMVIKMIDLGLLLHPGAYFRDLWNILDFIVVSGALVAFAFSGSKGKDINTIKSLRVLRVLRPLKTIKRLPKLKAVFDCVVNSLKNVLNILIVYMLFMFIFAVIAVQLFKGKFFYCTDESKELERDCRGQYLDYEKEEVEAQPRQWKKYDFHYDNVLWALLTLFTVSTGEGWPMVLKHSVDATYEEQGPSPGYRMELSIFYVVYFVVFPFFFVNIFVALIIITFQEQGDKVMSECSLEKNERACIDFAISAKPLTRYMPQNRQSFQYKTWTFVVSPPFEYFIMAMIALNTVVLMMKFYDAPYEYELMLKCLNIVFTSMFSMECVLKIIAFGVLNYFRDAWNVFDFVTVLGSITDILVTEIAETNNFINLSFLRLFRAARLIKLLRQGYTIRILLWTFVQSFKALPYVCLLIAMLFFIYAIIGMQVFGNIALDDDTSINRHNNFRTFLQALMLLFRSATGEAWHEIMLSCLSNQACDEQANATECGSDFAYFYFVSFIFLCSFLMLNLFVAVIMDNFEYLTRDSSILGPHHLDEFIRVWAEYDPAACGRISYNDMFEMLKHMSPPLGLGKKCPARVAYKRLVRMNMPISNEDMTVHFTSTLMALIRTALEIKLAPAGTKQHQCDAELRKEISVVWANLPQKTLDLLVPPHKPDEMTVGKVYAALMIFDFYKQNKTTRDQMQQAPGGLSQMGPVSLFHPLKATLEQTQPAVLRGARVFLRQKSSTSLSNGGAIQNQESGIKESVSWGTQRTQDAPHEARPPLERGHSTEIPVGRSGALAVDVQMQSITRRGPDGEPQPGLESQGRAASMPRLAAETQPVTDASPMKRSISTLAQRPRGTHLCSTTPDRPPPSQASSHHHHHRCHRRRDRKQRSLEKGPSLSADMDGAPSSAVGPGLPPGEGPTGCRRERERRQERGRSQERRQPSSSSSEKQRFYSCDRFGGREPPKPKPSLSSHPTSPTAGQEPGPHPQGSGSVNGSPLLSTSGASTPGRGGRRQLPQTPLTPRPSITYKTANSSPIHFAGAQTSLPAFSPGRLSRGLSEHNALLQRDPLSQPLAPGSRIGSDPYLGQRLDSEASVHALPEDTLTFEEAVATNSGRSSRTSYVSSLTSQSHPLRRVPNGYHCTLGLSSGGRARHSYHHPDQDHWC

In general, IC50 refers to the concentration that inhibits the measured activity by half. As to `CCCNc1ccc(S(=O)(=O)N2CCC(=NOCc3cccc(C(F)(F)F)c3)CC2)cn1` [Example 99], the IC50 under setting [1] is not above 1 µM.

In the case of `O=S(=O)(c1ccc(Oc2ccccc2)nc1)N1CCC(=NOCc2cccc(C(F)(F)F)c2)CC1` [Example 101, 1-(6-Phenoxypyridine-3-sulfonyl)piperidin-4-one O-(3-trifluoromethylbenzyl)oxime], the IC50 under setting [1] was not above 1 µM.

Turning to `N#Cc1cc(CON=C2CCN(S(=O)(=O)c3ccc(OC(F)(F)F)cc3)CC2)ccc1F` [Example 108, 2-Fluoro-5-[1-(4-trifluoromethoxybenzenesulfonyl)piperidin-4-ylideneaminooxymethyl]benzonitrile], the IC50 under setting [1] was not above 1 µM.

For the compound `COc1cccc(CON=C2CCN(S(=O)(=O)c3ccc(OC(F)(F)F)cc3)CC2)n1` [Example 110, 1-(4-Trifluoromethoxybenzenesulfonyl)piperidin-4-one O-(6-methoxypyridin-2-ylmethyl)oxime], under setting [1], the IC50 was not above 1 µM.

For the compound `COc1ncccc1CON=C1CCN(S(=O)(=O)c2ccc(OC(F)(F)F)cc2)CC1` [Example 111, 1-(4-Trifluoromethoxybenzenesulfonyl)piperidin-4-one O-(2-methoxypyridin-3-ylmethyl)oxime], the IC50 under setting [1] is not above 1 µM.

As to `O=S(=O)(c1ccc(OC(F)(F)F)cc1)N1CCC(=NOCc2cc(Cl)ccn2)CC1` [Example 118, 1-(4-Trifluoromethoxybenzenesulfonyl)piperidin-4-one O-(4-chloropyridin-2-ylmethyl)oxime], under setting [1], the IC50 was not above 1 µM.

Consider `O=S(=O)(c1ccc(OC(F)(F)F)cc1)N1CCC(=NOC(c2ccc(F)cc2)c2ccc(F)cc2)CC1` [Example 119, 1-(4-Trifluoromethoxybenzenesulfonyl)piperidin-4-one O-[bis(4-fluorophenyl)methyl]oxime], for which the IC50 under setting [1] was not above 1 µM.

In the case of `N#Cc1ccccc1CON=C1CCN(S(=O)(=O)c2ccc(OC(F)(F)F)cc2)CC1` [Example 120, 2-[1-(4-Trifluoromethoxybenzenesulfonyl)piperidin-4-ylideneaminooxymethyl]benzonitrile], under setting [1], the IC50 is not above 1 µM.

For the compound `N#Cc1cccc(CON=C2CCN(S(=O)(=O)c3ccc(OC(F)(F)F)cc3)CC2)c1` [Example 121, 3-[1-(4-Trifluoromethoxybenzenesulfonyl)piperidin-4-ylideneaminooxymethyl]benzonitrile], under setting [1], the IC50 is not above 1 µM.

`O=S(=O)(c1ccc(OC(F)(F)F)cc1)N1CCC(=NOCc2ccc(Cl)cn2)CC1` [Example 127, 1-(4-Trifluoromethoxybenzenesulfonyl)piperidin-4-one O-(5-chloropyridin-2-ylmethyl)oxime]: under setting [1], the IC50 is not above 1 µM.

Regarding `CN(C)c1cccc(CON=C2CCN(S(=O)(=O)c3ccc(OC(F)(F)F)cc3)CC2)c1` [Example 128, 1-(4-Trifluoromethoxybenzenesulfonyl)piperidin-4-one O-(3-dimethylaminobenzyl)oxime], the IC50 under setting [1] is not above 1 µM.

For the compound `O=[N+]([O-])c1ccc(CON=C2CCN(S(=O)(=O)c3ccc(OC(F)(F)F)cc3)CC2)cc1` [Example 134, 1-(4-Trifluoromethoxybenzenesulfonyl)piperidin-4-one O-(4-nitrobenzyl)oxime], under setting [1], the IC50 was not above 1 µM.

Turning to `COc1ccc(CON=C2CCN(S(=O)(=O)c3ccc(OC(F)(F)F)cc3)CC2)cn1` [Example 144, 1-(4-Trifluoromethoxybenzenesulfonyl)piperidin-4-one O-(6-methoxypyridin-3-ylmethyl)oxime], under setting [1], the IC50 is not above 1 µM.

Turning to `COc1cc(CON=C2CCN(S(=O)(=O)c3ccc(OC(F)(F)F)cc3)CC2)cc(Cl)n1` [Example 147, 1-(4-Trifluoromethoxybenzenesulfonyl)piperidin-4-one O-(2-chloro-6-methoxypyridin-4-ylmethyl)oxime], the IC50 under setting [1] is not above 1 µM.

Take `Cn1c(Cl)cc(CON=C2CCN(S(=O)(=O)c3ccc(OC(F)(F)F)cc3)CC2)cc1=O` [Example 152, 6-Chloro-1-methyl-4-[1-(4-trifluoromethoxybenzenesulfonyl)piperidin-4-ylideneaminooxymethyl]-1H-pyridin-2-one]: the IC50 under setting [1] was not above 1 µM.

In the case of `Cn1c(CON=C2CCN(S(=O)(=O)c3ccc(OC(F)(F)F)cc3)CC2)nc2ccccc21` [Example 160, 1-(4-(Trifluoromethoxy)phenylsulfonyl)piperidin-4-one O-(1-methyl-1H-benzo[d]imidazol-2-yl)methyl oxime], under setting [1], the IC50 was not above 1 µM.

On to `O=S(=O)(c1ccc(OC(F)(F)F)cc1)N1CCC(=NOCc2nc3ccccc3[nH]2)CC1` [Example 162, 1-(4-(Trifluoromethoxy)phenylsulfonyl)piperidin-4-one O-(1H-benzo[d]imidazol-2-yl)methyl oxime], for which, under setting [1], the IC50 was not above 1 µM.

`N#Cc1cccc(CON=C2CCN(S(=O)(=O)c3ccc(OC(F)(F)F)cc3)CC2)n1` [Example 173, 6-((1-(4-(Trifluoromethoxy)phenylsulfonyl)piperidin-4-ylideneaminooxy)methyl)picolinonitrile]: the IC50 under setting [1] was not above 1 µM.

With `N#Cc1cc(CON=C2CCN(S(=O)(=O)c3ccc(OC(F)(F)F)cc3)CC2)ccn1` [Example 177, 4-((1-(4-(Trifluoromethoxy)phenylsulfonyl)piperidin-4-ylideneaminooxy)methyl)picolinonitrile], under setting [1], the IC50 is not above 1 µM.

For the compound `N#Cc1ccnc(CON=C2CCN(S(=O)(=O)c3ccc(OC(F)(F)F)cc3)CC2)c1` [Example 178, 2-((1-(4-(trifluoromethoxy)phenylsulfonyl)piperidin-4-ylideneaminooxy)methyl)isonicotinonitrile], under setting [1], the IC50 is not above 1 µM.

Regarding `N#Cc1cc(CON=C2CCN(C(=O)CCC(c3ccc(F)cc3)c3ccc(F)cc3)CC2)ccc1F` [Example 181, 5-((1-(4,4-Bis(4-fluorophenyl)butanoyl)piperidin-4-ylideneaminooxy)methyl)-2-fluorobenzonitrile], the IC50 under setting [1] was not above 1 µM.

For `N#Cc1cccc(C(ON=C2CCN(S(=O)(=O)c3ccc(OC(F)(F)F)cc3)CC2)C2CC2)c1` (stereo not drawn) [Example 186, 3-(Cyclopropyl(1-(4-(trifluoromethoxy)phenylsulfonyl)piperidin-4-ylideneaminooxy)methyl)benzonitrile], the IC50 under setting [1] is not above 1 µM.

Turning to `COc1cc(CON=C2CCN(S(=O)(=O)c3ccc(OC(F)(F)F)cc3)CC2)nc2ccccc12` [Example 189, 1-(4-(Trifluoromethoxy)phenylsulfonyl)piperidin-4-one O-(4-methoxyquinolin-2-yl)methyl oxime], the IC50 under setting [1] was not above 1 µM.

Turning to `N#Cc1cccc(C(CO)ON=C2CCN(S(=O)(=O)c3ccc(OC(F)(F)F)cc3)CC2)c1` (stereo not drawn) [Example 191, 3-(2-Hydroxy-1-(1-(4-(trifluoromethoxy)phenylsulfonyl)piperidin-4-ylideneaminooxy)ethyl)benzonitrile], the IC50 under setting [1] is not above 1 µM.

Take `N#Cc1cccc(CON=C2CCN(S(=O)(=O)c3ccc(F)cc3)CC2)c1` [Example 196]: under setting [1], the IC50 was not above 1 µM.

As to `N#Cc1cccc(CON=C2CCN(S(=O)(=O)c3ccc(OC(F)F)cc3)CC2)c1` [Example 197, 3-((1-(4-(Difluoromethoxy)phenylsulfonyl)piperidin-4-ylideneaminooxy)methyl)benzonitrile], the IC50 under setting [1] was not above 1 µM.

As to `N#Cc1ccc(S(=O)(=O)N2CCC(=NOCc3cccc(C#N)c3)CC2)cc1` [Example 199], under setting [1], the IC50 was not above 1 µM.

For the compound `N#Cc1cccc(CON=C2CCN(S(=O)(=O)c3ccc(F)c(F)c3)CC2)c1` [Example 210, 3-((1-(3,4-Difluorophenylsulfonyl)piperidin-4-ylideneaminooxy)methyl)benzonitrile], the IC50 under setting [1] was not above 1 µM.

Take `O=c1ccc(C(ON=C2CCN(S(=O)(=O)c3ccc(OC(F)(F)F)cc3)CC2)c2ccc(F)cc2)c[nH]1` (stereo not drawn) [Example 214, 5-((4-Fluorophenyl)(1-(4-(trifluoromethoxy)phenylsulfonyl)piperidin-4-ylideneaminooxy)methyl)pyridin-2(1H)-one]: under setting [1], the IC50 is not above 1 µM.

Regarding `O=C(CC(=O)N1CCC(=NOC(c2ccc(F)cc2)c2ccc(F)cc2)CC1)Nc1ccc(F)cc1F` [Example 227, 3-(4-(Bis(4-fluorophenyl)methoxyimino)piperidin-1-yl)-N-(2,4-difluorophenyl)-3-oxopropanamide], the IC50 (calcium mobilization in vitro assay, N-type calcium channel blockers) came out at 1.1 µM.
